Laboratory results: patent US9145411B2, “Substituted amino-pyrimidine derivatives” (Asana Biosciences, LLC, priority 2012, dated 2015)

Tests used:
[1] = molecular target: PI3 kinase isoform γ (Homo sapiens, UniProt P48736); experiment: PI3 Kinase TR-FRET assay, isoform γ; type: biochemical; details: read-out: inhibition of PI3 kinase isoform γ, IC50
Experimental: The ability of compounds of the invention to inhibit PI3K activity was determined in a homogeneous TR-FRET assay using a PI3K assay kit (Millipore, USA; cat #33-016) according to manufacturer's instructions. PI3-Kinases (isoforms α, β, γ and δ) catalyze the phosphorylation of phosphatidylinositol, PIP2 to PIP3 in the presence of ATP and Mg^2+. The PIP3 product is detected by displacement of biotin-PIP3 from an energy transfer complex consisting of Europium labeled anti-GST monoclonal antibody, a GST-tagged PH domain, biotinylated PIP3 and Streptavidin-APC. Excitation of Europium in the complex results in an energy transfer to the APC and a fluorescence emission at 665 nm. The PIP3 product displaces biotin-PIP3 from the complex resulting in a loss of energy transfer and thus a decrease in signal.
To test for the ability of compounds to inhibit the activity of PI3Kα (wild-type), exemplary compounds of formula (I) were dissolved in DMSO and directly distributed into 384-well plates at a volume of 0.5 μL. 14.5 μL of P110/P85α/PIP2 mixture in buffer (obtained from the Millipore kit) containing MgCl2 (40 mM) and DTT (5 mM) was added to compound wells and incubated for 60 minutes at room temperature. P110/P85α was expressed in SF9 insect cells and purified nickel column extraction. Five ng of wild-type P110/P85α was used in the assay. The kinase reaction was started by the addition of ATP. The assay concentrations of both PIP2 and ATP were 10 μM. The reaction mixture was incubated for 30 minutes at room temperature and was terminated by the addition of stop mix and detection mix. Fluorescence was measured at 615 and 665 nm upon excitation at 340 nm in a Victor™ V5 fluorometer (Perkin Elmer, USA). The fluorescence emission ratio at 665 to 615 nm, proportional to the kinase activity, was plotted against the compound concentration to generate dose-response curves and IC50 values were determined using GraphPad Prism® 5 software.
The activity of PI3 kinase isoforms β, γ and δ were assayed in a similar manner to the assay protocol described above for PI3Kα, by substituting the appropriate p110/p85 isoform for the p110α/p85α. Compounds of formula (I) caused inhibition of PI3 kinase isoforms β, γ and δ as determined by these assays. For example, the compounds of Examples 3 and 21 each caused inhibition of PI3 kinase isoform β with IC50 values<500 nM. The compounds of Examples 3, 7, 21, 47, 48 and 49 each caused inhibition of PI3 kinase isoform γ with IC50 values<500 nM. The compounds of Example 3, 7, 47, 48, and 49 caused inhibition of PI3 kinase isoform δ with IC50 values<1 μM.

[2] = test system: pS6RP; experiment: In vivo PK/PD study, U87MG tumor xenograft, pS6RP; details: U87MG tumor-bearing xenograft mice, 50 mg/kg po
Experimental: PC3 cells are cultured at 37° C. in a 5% CO2 incubator using Hams F12 K medium. Ten million (10^7) cells are injected subcutaneously to the right flank region of athymic male mice (Harlan, age: 6-7 weeks, weight: about 20 g). Tumor bearing mice are randomized when the tumor volume reaches about 250 mm^3 and three mice are used per each time point. Test compounds of formula (I) are typically formulated in 40% HPCD in 1×PBS, pH 7.4 or in 10% Ethanol/40% Solutol/50% 50 mM aq. methanesulfonic acid and dosed orally at 50 mg/kg single dose (dose volume—10 mL/kg). Plasma and tumor samples are collected at 0 (vehicle control animals), 1, 4 and 24 hours post dosing. Blood is drawn (retro orbital) to a tube containing 0.2% EDTA for plasma collection. […] Tumor and plasma drug concentrations are measured for PK analysis using LC-MS.
Snap frozen tumor samples are pulverized in a mortar (Belart) containing liquid nitrogen and tumor powder is stored at −80° C. until analysis. […] The detection for pAKT is based on chemiluminescence and pS6RP is based on absorbance. […]
In vivo pharmacokinetic/pharmacodynamic (PK/PD) studies were carried out in a similar manner using U87MG tumor cells (glioma cancer cell line with a PTEN null mutation) and the corresponding tumor-bearing xenograft mice, and compounds of the invention were determined to be active in this assay. […]

[3] = test system: U87MG cells; experiment: XTT assay for cell viability, U87MG cells; type: cell-based; details: Homo sapiens, U-87 MG, read-out: inhibition of U87MG cell proliferation, IC50
Experimental: Using a commercial kit from Sigma Aldrich (Catalog #X34251) and following its protocol, PC3 cells in the log phase of growth were employed and seeded at an optimal density of 1000 cell/well on to 96 well plates and incubated for 24 hours followed by the addition of compounds of formula (I) in serial dilutions. Compound dilutions were made in DMSO. The cells were incubated with the compounds of formula (I) for 96 hours and XTT tetrazolium dye (Sigma, USA) was subsequently added and incubated at 37° C. After the color formation, absorbance was measured at 465 nm in a Spectramax® Gemini spectrophotometer. EC50 values were calculated using a sigmoidal dose response curve fit in GraphPad Prism® v5 software. The tested compounds of formula (I) which caused inhibition of PC3 cell proliferation as determined by this assay protocol are shown in Table 2.
XTT assays for cell viability were also determined in U87MG, BT474 cells and T47D cells, in a similar manner to the protocol described above. The compounds cause inhibition of U87MG, BT474 and T47D cell proliferation as determined by these assays. For example, the compounds of Examples 3 and 7 caused inhibition of U87MG, BT474 and T47D cell proliferation with IC50 values<600 nM.

PI3 kinase isoform γ, sequence (P48736 whole entry, the tested form may be a part, canonical isoform): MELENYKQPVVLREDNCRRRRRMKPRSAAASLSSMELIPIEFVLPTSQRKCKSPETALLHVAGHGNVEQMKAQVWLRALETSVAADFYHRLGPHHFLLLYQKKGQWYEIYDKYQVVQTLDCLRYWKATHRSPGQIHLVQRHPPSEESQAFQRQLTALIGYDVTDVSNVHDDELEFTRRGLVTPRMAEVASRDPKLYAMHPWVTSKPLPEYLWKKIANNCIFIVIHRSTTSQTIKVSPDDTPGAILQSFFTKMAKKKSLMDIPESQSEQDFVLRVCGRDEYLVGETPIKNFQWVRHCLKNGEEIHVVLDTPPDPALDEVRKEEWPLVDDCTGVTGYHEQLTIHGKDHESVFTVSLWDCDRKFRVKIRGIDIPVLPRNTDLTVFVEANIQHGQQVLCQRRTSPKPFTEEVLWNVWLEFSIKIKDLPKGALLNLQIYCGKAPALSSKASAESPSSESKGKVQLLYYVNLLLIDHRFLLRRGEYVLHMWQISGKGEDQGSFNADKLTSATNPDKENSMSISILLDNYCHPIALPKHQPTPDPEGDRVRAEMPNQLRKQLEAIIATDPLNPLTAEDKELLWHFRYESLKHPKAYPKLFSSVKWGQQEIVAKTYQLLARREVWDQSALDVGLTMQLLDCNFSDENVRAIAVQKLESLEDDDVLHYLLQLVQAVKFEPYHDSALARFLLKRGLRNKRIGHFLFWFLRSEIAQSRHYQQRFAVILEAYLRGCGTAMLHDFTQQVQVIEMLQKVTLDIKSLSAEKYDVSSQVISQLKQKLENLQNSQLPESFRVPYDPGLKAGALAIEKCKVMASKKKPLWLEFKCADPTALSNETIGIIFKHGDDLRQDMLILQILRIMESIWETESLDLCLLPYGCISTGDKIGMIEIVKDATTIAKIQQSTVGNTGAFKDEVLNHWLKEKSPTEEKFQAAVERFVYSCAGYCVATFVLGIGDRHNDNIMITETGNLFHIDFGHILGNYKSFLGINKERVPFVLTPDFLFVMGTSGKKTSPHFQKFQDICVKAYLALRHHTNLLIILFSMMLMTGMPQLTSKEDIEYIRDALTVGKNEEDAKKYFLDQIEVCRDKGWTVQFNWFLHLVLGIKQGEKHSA

Row | IC50 [1] | IC50 [3] | Structure (SMILES) | suppression of pS6RP [2]
1 | < 500 nM | < 600 nM | CC(=O)Nc1cccc(-c2cnc3c(N4CCOCC4)nc(-c4cnc(N)nc4)nc3c2)c1 [Example 3, N-(3-(2-(2-Aminopyrimidin-5-yl)-4-morpholinopyrido[3,2-d]pyrimidin-7-yl)-phenyl)acetamide] | suppression
2 | < 500 nM | < 600 nM | Nc1ncc(-c2nc(N3CCOCC3)c3ncc(-c4cccc(NC(=O)C5CC5)c4)cc3n2)cn1 [Example 7, N-(3-(2-(2-Aminopyrimidin-5-yl)-4-morpholinopyrido[3,2-d]pyrimidin-7-yl)-phenyl)cyclopropanecarboxamide] | –
3 | – | – | N#CC1(C(=O)Nc2cccc(-c3cnc4c(N5CCOCC5)nc(-c5cnc(N)nc5)nc4c3)c2)CC1 [Example 61, N-(3-(2-(2-amino-pyrimidin-5-yl)-4-morpholinopyrido[3,2-d]pyrimidin-7-yl)phenyl)-1-cyanocyclopropane-carboxamide] | suppression
